Data: US20220162215A1, “COMPOSITIONS AND METHODS OF USING THE SAME FOR TREATMENT OF NEURODEGENERATIVE AND MITOCHONDRIAL DISEASE” (MITOKININ, INC., priority 2019, published 2022)
Like-named read-outs stand apart in the source and are kept apart here.

Legend:
[1] = system: HeLa MKYP cells; experiment: Human mitophagy assay (HeLa MKYP, mtKeima FACS, FCCP/oligomycin); assay type: cell-based; settings: Homo sapiens, HeLa
Procedure: (§1) Briefly, HeLa MKYP cells were plated at 10,000 cells/well in 96 well plates along with compounds at various concentrations. Following 16 hrs of incubation, cells were treated with 1 uM FCCP/oligomycin for 6 hours, then analyzed via FACS for the presence of mitochondria in lysosomes (as determined by an emissions spectrum shift from the pH-sensitive mtKeima tag). Examples are shown in FIG. 1 through FIG. 13 below.

[2] = system: HeLa MKYP cells; experiment: Toxicity / cell death measured by DAPI staining (take-up); assay type: cell-based
Procedure: H2O2 treatment was performed as a control for cell death as measured by DAPI staining.
as §1, with “tag).” for “tag). Examples are shown in FIG. 1 through FIG. 13 below.”

[3] = Table 3, read-out: Potency at 1 μM F/O toxin* (EC50 of mitophagy activation)
[4] = Table 3 Supplement A, as measured in Table 3, read-out: Potency (EC50 Max Mitophagy) (μM)*

Row | Compound | EC50 [1, 3] | EC50 [1, 4] | Toxicity (% positive for DAPI takeup @ 50 μM) ([2]; Table 3) | Toxicity (% positive for DAPI take-up at 50 μM)* ([2]; Table 3 Supplement A) | also measured
1 | OC[C@H](Nc1ncnc2[nH]cnc12)c1ccccc1 [Compound 75] | 3.5 µM | 3.48 µM | 14.5% | 14.49% | –
2 | OC[C@H](Nc1ncnc2[nH]c(C(F)(F)F)cc12)c1ccccc1 [Compound 76] | 14.7 µM | 14.7 µM | 30.4% | 30.45% | –
3 | OC[C@@H](Nc1ncnc2[nH]c(C(F)(F)F)cc12)c1ccccc1 [Compound 77] | 4.4 µM | 4.41 µM | 30.3% | 30.27% | –
4 | FC(F)(F)c1cc2c(NC3CCN(Cc4ccccc4)CC3)ncnc2[nH]1 [Compound 78] | 21.4 µM | 21.4 µM | 43.9% | 43.86% | –
5 | O=S1(=O)Cc2ccccc2C(Nc2ncnc3[nH]c(C(F)(F)F)cc23)C1 (stereo not drawn) [Compound 79] | > 50 µM | > 25 µM | 13.2% | 13.18% | –
6 | CN1CC[C@H](Nc2ncnc3[nH]c(C(F)(F)F)cc23)c2ccccc21 [Compound 80] | 1.9 µM | 1.81 µM | 28.1% | 8.7% | –
7 | c1ccc2c(c1)OCC[C@H]2Nc1ncnc2[nH]c(C3CC3)cc12 [Compound 111] | 2 µM | – | 17.3% | – | EC50 ([1]; Table 3 Supplement B, read-out: Mitophagy EC50 (HeLa mKeima assay)): 1.98 µM; Max cell death at 25 uM compound, 1 uM FO ([2]; Table 3 Supplement B, 25 uM compound, 1 uM FO): 17.3%; Cell death at 25 μM (no FO) ([2]; Table 3 Supplement B, 25 μM, no FO): 7.26%
8 | CCCCNc1ncnc2[nH]c(C3CC3)nc12 [Compound 34886, N-butyl-8-cyclopropyl-9H-purin-6-amine] | – | – | – | – | EC50 ([1]; Table 4, read-out: Potency (EC50 Max Mitophagy)): 9.1 µM; Toxicity (% positive for DAPI takeup @ 50 μM) ([2]; Table 4): 9.1%
9 | c1coc(CNc2ncnc3[nH]c(C4CCC4)nc23)c1 [EP-0035338, 8-cyclobutyl-N-(2-furylmethyl)-9H-purin-6-amine] | – | > 25 µM | – | 3.04% | –
10 | CCCCNc1ncnc2[nH]c(C3CCC3)nc12 [EP-0035339, N-butyl-8-cyclobutyl-9H-purin-6-amine] | – | > 25 µM | – | 6.13% | –
11 | COc1cc(CNc2ncnc3[nH]c(C4CC4)nc23)ccn1 [EP-0036032, 8-cyclopropyl-N-[(2-methoxy-4-pyridyl)methyl]-9H-purin-6-amine] | – | > 25 µM | – | 7.06% | –
12 | c1ncc(CNc2ncnc3[nH]c(C4CC4)nc23)cn1 [EP-0036050, 8-cyclopropyl-N-(pyrimidin-5-ylmethyl)-9H-purin-6-amine] | – | > 25 µM | – | – | Toxicity (% positive for DAPI take-up at 50 μM)* ([2]; human): 7.06%
